# Data reported in patent publication US7807422B2, “Production of flavonoids by recombinant microorganisms” (The Research Foundation of State University of New York, priority 2004, dated 2010).
# What was measured:
# A. andraeanum DFR = test: Biotransformation assay of flavanones with recombinant E. coli harboring Anthurium DFR (flavanone reductase activity); assay type: cell-based, Anthurium andraeanum; conditions: substrate 0.4 mg/mL, 30° C., 24 hours, HPLC
# Procedure: Seed cultures of recombinant E. coli harboring Anthurium DFR were grown in LB with 100 μg/mL ampicillin. After 24 hours, the preinoculum was used to seed a 50-mL main culture which was incubated at 37° C. until A600 reached 0.5. IPTG and flavanone substrates were added at a final concentration of 2 mM and 0.4 mg/mL respectively, and incubation proceeded at 30° C. for 24 hours before harvesting. Flavonoid products in the culture supernatant were extracted twice with an equal volume of ethyl acetate. The organic solvent was collected and evaporated using a rotary evaporator, and the residue was dissolved in water.
# The products were analyzed by HPLC using an Agilent HPLC 1100 series instrument with a diode array detector. HPLC was carried out using a reverse phase ZORBAX SB-C18 column (diameter 4.6 mm×150 mm) using an acetonitrile (solvent A) and water (solvent B) gradient at a flow rate of 1 ml/min. The HPLC program conditions used were as follows: 10% to 40% A (0-10 min), 40% to 60% A (10-15 min), 60% A (15-20 min). Absorbance at 280 nm was monitored in all cases. […] The UV maximum for the various flavan-4-ols synthesized were: 276 nm for 2,4-cis-flavan-4-ol; 275 nm for 2,4-trans-flavan-4-ol; 281 nm for 2,4-cis-7-hydroxyflavan-4-ol; and 279 nm for 2,4-trans-7-hydroxyflavan-4-ol.
# Besides NAR and ERI, four other commercially available flavanones were tested as substrates using the recombinant A. andraeanum DFR enzyme. The biotransformation assay was chosen for that purpose, since these flavanones cannot be synthesized as radio-isotopomers.
# [1] = test system: Recombinant DFR A. andraeanum; test: In vitro DFR/FNR enzymatic reaction, TLC analysis; assay type: biochemical, Anthurium andraeanum; conditions: compound as substrate; pH 6.5, 30° C.
# Procedure: (§1) Vector pTrcHis2-TOPO, either empty (control) or harboring the various cDNA sequences, was transformed into E. coli strain TOP10F′ (Invitrogen). Individual colonies were grown overnight in 3-mL Luria-Broth (LB) cultures with 100 μg/mL Ampicillin. The seed culture was used the following day to start a 50-mL main culture with an initial absorbance at 600 nm (A600) of 0.05. The main culture was left to grow at 37° C. until A600 reached 0.5-0.8. At that point, the inducer IPTG (isopropyl β-thiogalactoside) at a final concentration of 2 mM was added and the culture was left to grow for 4 hours at 30° C. Cells were harvested by centrifugation, resuspended in 5 mL of buffer (0.1 M K2HPO4/KH2PO4, pH 6.5), and lysed by either sonication or glass beads.
# (§2) In vitro DFR and FNR enzymatic reactions were performed using 186 Bq of radiolabeled substrate and incubation was performed at 30° C. for 30 min−1 hour for DFR tests, and 30 min−2.5 hours for FNR tests. Ethyl acetate extraction was performed (twice) at the end of the incubation period, with 100 μL ethyl acetate. The organic phase was analyzed on a precoated TLC cellulose plate (Merck, Germany). The products, leucoanthocyanins and flavan-4-ols were separated from the respective substrates, dihydroflavonols and flavanones by chromatography in chloroform:acetic acid:water (10:9:1) system. The detection and quantification of radioactivity was performed using Fuji BAS1000 Bio-Imaging Analyzer. Protein content was determined using Lowry procedure with crystalline BSA as a standard. In vitro reaction products were identified by a previously published Rf values from in vitro reactions using heterologously expressed DFR proteins from Malus domestica (Punyasiri, et al., 2004, Arch. Biochem. Biophys., 431:22-30). Using TLC chromatography with chloroform:acetic acid:water (10:9:1), the Rf(×100) values for various flavonoids are DHK: 68; DHQ: 35; DHM: 11; NAR: 93; ERI: 61; LPg: 18; LCy: 8; LDp: 14; Apf: 45; Ltf: 18.
# (§3) The in vitro reactions were performed using the optimal conditions (pH 6.5, 30° C.). […] No products were formed when using crude extract from E. coli harboring empty vector. DHQ and DHM were accepted as substrates by all seven recombinant enzymes, however, only the recombinant DFR enzymes derived from A. andraeanum, A. thaliana, I. nil, R. hybrida, and F. ananassa were able to catalyze the formation of LPg (Table 18). […] In addition, no LPg could be detected in assays using DFR from I. purpurea and L. hybrid even when the reaction period was extended and the amount of protein was increased up to 100 μg. In all cases, substrate specificity appeared to be independent of temperature or pH changes.
# [2] = molecular target: T1, Recombinant DFR A. thaliana (Arabidopsis thaliana, UniProt P51102); test: In vitro DFR/FNR enzymatic reaction, TLC analysis; assay type: biochemical; conditions: compound as substrate; pH 6.5, 30° C.
# T1 construct: We amplified full-length cDNA of various plant DFR open reading frames by PCR and RT-PCR; made in house; host or cells: E. coli TOP10F′ (crude lysate)
# T1 sequence (P51102 1-382): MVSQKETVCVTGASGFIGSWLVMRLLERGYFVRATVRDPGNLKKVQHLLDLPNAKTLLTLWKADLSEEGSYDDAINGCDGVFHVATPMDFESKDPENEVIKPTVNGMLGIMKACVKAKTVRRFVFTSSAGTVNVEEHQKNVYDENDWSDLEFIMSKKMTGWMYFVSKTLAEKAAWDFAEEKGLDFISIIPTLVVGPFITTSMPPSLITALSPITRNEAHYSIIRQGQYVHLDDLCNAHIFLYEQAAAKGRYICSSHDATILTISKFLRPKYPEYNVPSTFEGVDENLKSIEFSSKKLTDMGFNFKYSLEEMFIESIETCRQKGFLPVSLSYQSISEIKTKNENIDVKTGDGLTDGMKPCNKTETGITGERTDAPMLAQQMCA
# Procedure: as §1, §2, §3
# Recombinant DFR I. nil = test: In vitro DFR/FNR enzymatic reaction, TLC analysis; assay type: biochemical, Ipomoea nil; conditions: compound as substrate; pH 6.5, 30° C.
# Procedure: as §1, §2, §3
# [3] = test system: Recombinant DFR I. purpurea; test: In vitro DFR/FNR enzymatic reaction, TLC analysis; assay type: biochemical, Ipomoea purpurea; conditions: compound as substrate; pH 6.5, 30° C.
# Procedure: as §1, §2, §3
# [4] = test system: Recombinant DFR L. hybrid; test: In vitro DFR/FNR enzymatic reaction, TLC analysis; assay type: biochemical, Lilium hybrid; conditions: compound as substrate; pH 6.5, 30° C.
# Procedure: as §1, §2, §3
# [5] = test system: Recombinant DFR R. hybrida; test: In vitro DFR/FNR enzymatic reaction, TLC analysis; assay type: biochemical, Rosa hybrida; conditions: compound as substrate; pH 6.5, 30° C.
# Procedure: as §1, §2, §3
# [6] = test system: Recombinant DFR F. ananassa; test: In vitro DFR/FNR enzymatic reaction, TLC analysis; assay type: biochemical, Fragaria ananassa; conditions: compound as substrate; pH 6.5, 30° C.
# Procedure: as §1, §2, §3
# [7] = test system: flavanone biosynthesis in recombinant yeast strain INV-4G; test: Naringenin production from coumaric acid by INV-4G in the presence of apigenin (feedback inhibition); assay type: cell-based, S. cerevisiae
# From the text: Heterologous expression and fermentation. In order to assemble the two different flavone biosynthetic pathways, recombinant INVSc1 carrying plasmid Ycc4c181G was transformed with YC-FSI, YC-FSII or YC-FSII+CPR1 separately, yielding recombinant strains INV-4G+FSI, INV-4G+FSII, and INV-4G+FSII+CPR1. Yeast colonies harboring both plasmids were selected upon growth on SC agar plates lacking leucine and tryptophan (SC-Leu-Trp-). For flavone fermentation purposes, an individual recombinant yeast colony was grown overnight in 10-mL liquid SC-Leu-Trp-containing glucose at 30° C. with shaking. The following day, a portion of this culture was used to seed the main culture of SC-Leu-Trp-containing galactose and raffinose or MA-Leu-Trp-containing galactose and acetate to an Ab600 of 0.4. 0.5 mM of phenylpropanoid acid (cinnamic acid, p-coumaric acid, caffeic acid, ferulic acid) was then added to the main culture, and incubation was carried out at 30° C. with horizontal shaking for a maximum of 92 hours.
# Considering that INV-4G+FSI produced more apigenin than INV-4G+FSII+CPR1, we tested the possibility that flavanone biosynthesis is feedback—inhibited by apigenin. For this purpose, recombinant yeast strain carrying only the four flavanone biosynthetic genes (INV-4G) was created by simultaneously inserting YP-4G and empty YCplac22 plasmid. INV-4G was then tested for the ability to generate naringenin from coumaric acid, in the presence of apigenin. […] In the presence of 1 mg/L apigenin, the production of naringenin at stationary phase was reduced by 14%.
# E. coli BL21 Star = test: Effect of phenylpropanoid acids on E. coli growth (growth curves); assay type: cell-based
# Procedure: Growth Curves. In order to investigate the effect of Phenylpropanoid acids on E. coli growth, E. coli BL21 Star was inoculated in 3 ml M9 liquid minimum medium and was left to grow at 37° C. overnight (preinoculum). The following day, 1 ml from the preinoculum was transferred to either 50 ml M9 minimal or Luria-Bertani (LB) rich liquid medium and p-coumaric acid, caffeic acid or cinnamic acid were added in the culture at different final concentrations (0 mM, 0.2 mM, 0.5 mM, 1 mM and 2 mM). Cell growth was monitored by measuring the absorbance at 600 nm (A600).
# Phenylpropanoid acids reduce E. coli growth. We tested the effect of both p-coumaric acid and cinnamic acid on E. coli growth by incubating BL21 Star in M9 minimum medium and LB rich medium in the presence of different concentration of these compounds (0 mM, 0.05 mM, 0.1 mM, 0.15 mM, 0.2 mM, 1 mM, and 2 mM). […] For example, in the case of p-coumaric acid in […], the growth rate dropped from 0.28 h^−1 (control, 0 mM) to 0.18 h^−1 (2 mM). Similarly, for cinnamic acid the growth rate dropped from 0.27 h^−1 (control, 0 mM) to 0.17 h^−1 (2 mM) in M9 minimal medium.
# [8] = test system: S. cerevisiae strain INVSC1 carrying plasmid Ycc4c181; test: Growth of recombinant yeast fed with phenylpropanoid acids; assay type: cell-based; conditions: preliminary data
# Procedure: Yeast Shake Flask Experiment. A single colony of strain INVSC1 carrying plasmid Ycc4c181 was inoculated into 15 ml of SC-Leu minimal medium containing 2% glucose and was left to grow overnight at 30° C. with shaking (preinoculum). The following day, 50 ml induction medium (SC-Leu medium containing 2% galactose) was seeded with medium-free preinoculum to a final absorbance at 600 nm (A600) of 0.4. Cells were then left to grow at 30° C. with vigorous shaking for 4 hours. At that time, 50 μl of a 0.25 M stock solution of substrate (cinnamic acid, p-coumaric acid, caffeic acid or ferulic acid) were added to the culture to a final concentration of 0.25 mM. The culture was left to grow at 30° C. for a total of 65 hours with horizontal shaking. During that time, the culture was supplemented with another 50 μl of substrate stock every 12 hours for a total of 4 times.
# Cinnamic acid was provided in a total of 5 increments to the culture. […] In all cases, after 65 hours of fermentation, only trace amounts of cinnamic acid were detected in the culture.
# Flavanone compounds were identified by comparison of the retention time and UV profile with those of authentic standards and literature data.
# [9] = test system: E. coli JM109 carrying plasmid pK184; test: Effect of naringenin on E. coli growth; assay type: cell-based
# Procedure: E. coli shake-flask experiments. The identification of compounds produced from recombinant E. coli strain JM109 carrying plasmid pDGFA184 was done in a similar way to what has already been described in the literature Hwang et al., 2003, Appl. Environ Microbiol., 69:2699-2706). More specifically, 3 ml of Luria-Broth rich medium containing 50 ug/ml kanamycin was inoculated with the recombinant strain and was incubated at 37° C. with vigorous shaking. The next day, 200 ml of LB containing 50 μg/ml kanamycin was inoculated with 1 ml of overnight culture and the culture was incubated at 37° C. with vigorous shaking at 300 rpm to an OD600 of approximately 0.6. Next, the inducer IPTG was added to the culture to a final concentration of 1 mM. In order to avoid the formation of inclusion bodies, after the addition of the inducer the culture was incubated at room temperature with vigorous shaking overnight. Next day the cells were harvested by centrifugation and washed twice with M9 minimal medium. The pellets were then resuspended in 200 ml M9 minimal medium containing 50 μg/ml kanamycin, 1 mM IPTG and various concentrations of naringenin. In order to measure growth curves, the cultures were left to grow at room temperature with vigorous shaking until late stationary phase was reached. For flavonoid extraction experiments, the cultures were left to grow at room temperature for 65 h, again with horizontal vigorous shaking.
# We tested the effect of naringenin on E. coli growth by incubating cultures of JM109 carrying plasmid pK184 in M9 minimal medium (50 μg/ml kanamycin) in the presence of different concentrations of naringenin (0.1 mM, 0.3 mM, 0.5 mM and 1 mM).
Structure (SMILES),Specific activity [1] [pkatal/mg],Specific activity [2] [pkatal/mg],Specific activity (Recombinant DFR I. nil) [pkatal/mg],Specific activity [3] [pkatal/mg],Specific activity [4] [pkatal/mg],Specific activity [5] [pkatal/mg],Specific activity [6] [pkatal/mg],also measured
"COc1cc(OC)c2c(c1)OC(c1ccccc1)CC2=O (stereo not drawn) [5,7-dimethoxyflavanone]",,,,,,,,reduction to the corresponding flavan-4-ol (A. andraeanum DFR): not
"O=C1c2c(O)cc(O)cc2O[C@H](c2ccc(O)cc2)[C@H]1O [DHK, dihydrokaempferol]",21,0.002,0.3,0,0,0.4,14,
"O=C1c2c(O)cc(O)cc2O[C@H](c2cc(O)c(O)c(O)c2)[C@H]1O [DHM, dihydromyricetin]",1.4,1.0,1.5,1.5,1.2,1.3,1.4,
"O=C1c2c(O)cc(O)cc2O[C@H](c2ccc(O)c(O)c2)[C@H]1O [DHQ, dihydroquercetin]",1.4,1.3,1.3,1.2,1.3,1.0,1.2,
"O=C1C[C@@H](c2ccc(O)c(O)c2)Oc2cc(O)cc(O)c21 [ERI, eriodictyol]",0.8,0.6,0.6,0.6,0.6,0.7,0.6,
O=c1cc(-c2ccc(O)cc2)oc2cc(O)cc(O)c12 [apigenin],,,,,,,,production of naringenin at stationary phase reduced by ([7]; 1 mg/L apigenin): 14%; naringenin production decline ([7]; 3 mg/L apigenin): approximately 60%; naringenin production decline ([7]; 10 mg/L apigenin): ~85%
O=C(O)C=Cc1ccccc1 [cinnamic acid],,,,,,,,"growth rate (E. coli BL21 Star; 2 mM cinnamic acid, M9 minimal medium): 0.17 h⁻¹; concentration in the medium resulting in significant cell growth arrest [8]: above 0.5 mM"
O=C1CC(c2ccccc2)Oc2ccccc21 (stereo not drawn) [flavanone],,,,,,,,reduction to the corresponding flavan-4-ol (A. andraeanum DFR): able to reduce
COc1ccc([C@@H]2CC(=O)c3c(O)cc(O)cc3O2)cc1O [hesperetin],,,,,,,,reduction to the corresponding flavan-4-ol (A. andraeanum DFR): not
O=C1C[C@@H](c2ccc(O)cc2)Oc2cc(O)cc(O)c21 [naringenin],0.7,0,0.3,0,0,0.4,0.5,"final dry cell weight concentration ([9]; 1 mM naringenin in minimal medium, after 13 h cell growth): 0.492 mg/mL; reduction in the final dry cell weight ([9]; 1 mM naringenin vs control, 13 h): 16%; maximum specific growth rate ([9]; 1 mM naringenin, M9 minimal medium): 0.14 h⁻¹; OD600 (final cell mass) ([9]; 1 mM naringenin, after 13 h of growth): 1.0"
O=C(O)/C=C/c1ccc(O)cc1 [p-coumaric acid],,,,,,,,"growth rate (E. coli BL21 Star; 2 mM p-coumaric acid, M9 rich medium): 0.18 h⁻¹"
